This note sets out measurements from ChEMBL document CHEMBL2034821, “Synthesis, hypoglycemic and hypolipidemic activities of novel thiazolidinedione derivatives containing thiazole/triazole/oxadiazole ring” (Eur J Med Chem, 2012).

SMILES strings stand for the structures.

Series [1] deals with Rattus norvegicus. In words: Hypoglycemic activity in alloxan-induced diabetic Wistar rat model assessed as reduction in plasma glucose level at 3 mg/kg, po for 15 days measured on day 15. It is filed as functional. Details: scale not given: the % may be the effect or the level left.
Series [2] has as its system Rattus norvegicus. Kind of series: Hypoglycemic activity in alloxan-induced diabetic Wistar rat model assessed as reduction in plasma glucose level at 10 mg/kg, po for 15 days measured on day 15. Details: scale not given: the % may be the effect or the level left. It is filed as functional.
The test system of series [3] is Rattus norvegicus. In words: Hypoglycemic activity in alloxan-induced diabetic Wistar rat model assessed as reduction in plasma glucose level at 30 mg/kg, po for 15 days measured on day 15. It is filed as functional. More on the design: scale not given: the % may be the effect or the level left.
The subject of series [4] is Rattus norvegicus. In words: Hypoglycemic activity in alloxan-induced diabetic Wistar rat model assessed as reduction in plasma glucose level at 100 mg/kg, po for 15 days measured on day 15. It is filed as functional. Details: scale not given: the % may be the effect or the level left.
In series [5] the test system is Rattus norvegicus. Kind of series: Hypolipidemic activity in alloxan-induced diabetic Wistar rat model assessed as reduction in triglyceride level at 3 mg/kg, po for 15 days measured on day 15. It is filed as functional. More on the design: scale not given: the % may be the effect or the level left.
Series [6] concerns Rattus norvegicus. Kind of series: Hypolipidemic activity in alloxan-induced diabetic Wistar rat model assessed as reduction in triglyceride level at 10 mg/kg, po for 15 days measured on day 15. More on the design: scale not given: the % may be the effect or the level left. It is filed as functional.
The test system of series [7] is Rattus norvegicus. Kind of series: Hypolipidemic activity in alloxan-induced diabetic Wistar rat model assessed as reduction in triglyceride level at 30 mg/kg, po for 15 days measured on day 15. It is filed as functional. Details: scale not given: the % may be the effect or the level left.
For series [8], the system named is Rattus norvegicus. Kind of series: Hypolipidemic activity in alloxan-induced diabetic Wistar rat model assessed as reduction in triglyceride level at 100 mg/kg, po for 15 days measured on day 15. Details: scale not given: the % may be the effect or the level left. It is filed as functional.
Series [9] concerns Rattus norvegicus. In words: Toxicity in Wistar rat at 3 to 100 mg/kg, po for 15 days. It is filed as organism-based. Details: dose 3-100 mg/kg, route oral. Conditions: in vivo, 360 h.

On to `Cc1nc(COc2ccc(/C=C3\SC(=O)NC3=O)cc2)cs1`, for which the Activity was found to be 10.42% in series [1]; 10.64% in [2]; 14.73% in series [3]; 22.87% in series [4]; 18.62% in series [5]; 19.2% in series [6]. In addition, the Activity is given as 26.4% in series [7], 38.92% in series [8] and “Non-toxic” in series [9].

On to `O=C1NC(=O)/C(=C/c2ccc(OCc3csc(-c4ccccc4)n3)cc2)S1`, for which the Activity was determined as 17.75% in series [1]; 20.36% in series [2]; 22.64% in [3]; 29.73% in series [4]; 25.24% in series [5]; 21.69% in series [6]. Moreover, the Activity was 40.26% in series [7], 53.96% in series [8] and “Non-toxic” in [9].

For the compound `O=C1NC(=O)/C(=C/c2ccc(OCCSc3nnc(-c4ccccc4)[nH]3)cc2)S1`, the Activity came to 10.42% in series [1]; 10.64% in series [2]; 14.73% in series [3]; 22.87% in [4]; 18.62% in series [5]; 19.2% in [6]. Further, the Activity in [7] is given as 26.4%; in series [8] it was 38.92%; in series [9], “Non-toxic”.

`O=C1NC(=O)/C(=C/c2ccc(OCCSc3nnc(Cc4ccccc4)[nH]3)cc2)S1`: the Activity in series [1] turned out to be 18.28%; in [2], 19.36%; in series [3] it was 28.54%; in series [4], 34.38%; in series [5], 22.45%; in series [6] it was 22.81%. In addition, the figures for the Activity in series [7], in series [8] and in [9] were 38.25%, 41.87% and “Non-toxic”, respectively.

`Cc1ccc(-c2nnc(SCCOc3ccc(/C=C4\SC(=O)NC4=O)cc3)[nH]2)cc1`: the Activity turned out to be 16.87% in [1]; 20.36% in [2]; 22.64% in [3]; 29.73% in series [4]; 25.24% in series [5]; 21.69% in series [6]. Further, the figures for the Activity in series [7], in series [8] and in series [9] were 40.26%, 53.96% and “Non-toxic”, respectively.

As for `O=C1NC(=O)/C(=C/c2ccc(OCCSc3nnc(-c4ccc([N+](=O)[O-])cc4)[nH]3)cc2)S1`, the Activity in [1] turned out to be 11.92%; in [2], 13.85%; in [3], 16.02%; in series [4], 18.04%; in [5], 14.12%; in series [6], 15.32%. The figures for the Activity in series [7], in [8] and in [9] were 18.56%, 22.08% and “Non-toxic”, respectively.

On to `O=C1NC(=O)/C(=C/c2ccc(OCCSc3nnc(-c4ccccc4[N+](=O)[O-])[nH]3)cc2)S1`, for which the Activity in [1] was found to be 14.58%; in [2] it was 15.28%; in series [3], 20.14%; in [4], 26.84%; in series [5], 19.84%; in [6], 20.91%. Also, the Activity in series [7] is 38.64%; in [8], 49.12%; in series [9], “Non-toxic”.

Turning to `O=C1NC(=O)/C(=C/c2ccc(OCCSc3nnc(-c4ccc(Cl)cc4)[nH]3)cc2)S1`, the Activity was 16.04% in [1]; 19.63% in [2]; 23.68% in series [3]; 28.85% in [4]; 23.85% in series [5]; 24.56% in [6]. The figures for the Activity in series [7], in series [8] and in [9] were 32.92%, 41.56% and “Non-toxic”, respectively.

`O=C1NC(=O)/C(=C/c2ccc(OCCSc3nnc(-c4ccc(Br)cc4)[nH]3)cc2)S1`: the Activity in series [1] worked out at 13.15%; in [2] it was 20.43%; in [3] it was 19.52%; in [4] it was 28.51%; in [5] it was 28.35%; in series [6], 26.87%. Also, the Activity in [7] is 39.45%; in [8], 45.68%; in [9], “Non-toxic”.

As to `COc1ccc(-c2nnc(SCCOc3ccc(/C=C4\SC(=O)NC4=O)cc3)[nH]2)cc1`, the Activity is listed as 41.28% in [1]; 33.62% in series [2]; 40.04% in [3]; 43.42% in series [4]; 43.14% in series [5]; 42.63% in series [6]. In addition, the Activity in [7] is 59.46%; in [8], 71.24%; in series [9] it was “Non-toxic”.

On to `O=C1NC(=O)/C(=C/c2ccc(OCCSc3nnc(-c4ccccc4)o3)cc2)S1`, for which the Activity in series [1] was 11.62%; in [2] it was 14.64%; in [3] it was 16.13%; in series [4] it was 20.08%; in series [5], 21.56%; in series [6], 22.18%. Moreover, the Activity in series [7] is listed as 24.05%; in series [8] it was 33.12%; in series [9] it was “Non-toxic”.

On to `O=C1NC(=O)/C(=C/c2ccc(OCCSc3nnc(Cc4ccccc4)o3)cc2)S1`, for which the Activity was determined as 14.23% in series [1]; 16.82% in [2]; 19.08% in [3]; 23.08% in [4]; 18.52% in series [5]; 20.54% in series [6]. In addition, the Activity in [7] is reported as 28.02%; in series [8], 34.56%; in series [9], “Non-toxic”.

For `O=C1NC(=O)/C(=C/c2ccc(OCCSc3nnc(-c4cccnc4)o3)cc2)S1`, the Activity in series [1] is recorded as 24.35%; in series [2], 33.16%; in [3] it was 39.34%; in series [4], 50.09%; in [5], 40.66%; in series [6] it was 45.1%. Also, the Activity in [7] is 60.78%; in series [8], 72.32%; in [9], “Non-toxic”.

Take `O=C1NC(=O)/C(=C/c2ccc(OCCSc3nnc(-c4ccncc4)o3)cc2)S1`: the Activity in [1] was 23.46%; in series [2], 32.62%; in series [3] it was 40%; in [4], 43.42%; in [5], 40.15%; in series [6], 42.17%. In addition, the Activity is given as 58.48% in series [7], 69.72% in [8] and “Non-toxic” in [9].

`CCc1ccc(CCOc2ccc(CC3SC(=O)NC3=O)cc2)nc1` (centres undefined) [PIOGLITAZONE]: the Activity was found to be 47.02% in [1]; 35.25% in series [2]; 40.96% in series [3]; 45.89% in series [4]; 41.6% in series [5]; 47.25% in series [6]. The figures for the Activity in series [7] and in series [8] were 64.59% and 75.43%, respectively.
